{
  "source": "patent EP2121694B1",
  "about": "“CYCLOPROPYL FUSED INDOLOBENZAZEPINE HCV NS5B INHIBITORS” (Bristol-Myers Squibb Company, priority 2007, dated 2008)",
  "key": {"HCV NS5B": {"biological_target": "T1, HCV NS5B (Hepatitis C virus genotype 1b, UniProt Q9WMX2)", "T1 construct": "The protein was expressed with an 18 amino acid C-terminal truncation to enhance the solubility; made in house; host or cells: E. coli BL21(DE3), pET21a vector", "T1 sequence (Q9WMX2 2420-2992)": "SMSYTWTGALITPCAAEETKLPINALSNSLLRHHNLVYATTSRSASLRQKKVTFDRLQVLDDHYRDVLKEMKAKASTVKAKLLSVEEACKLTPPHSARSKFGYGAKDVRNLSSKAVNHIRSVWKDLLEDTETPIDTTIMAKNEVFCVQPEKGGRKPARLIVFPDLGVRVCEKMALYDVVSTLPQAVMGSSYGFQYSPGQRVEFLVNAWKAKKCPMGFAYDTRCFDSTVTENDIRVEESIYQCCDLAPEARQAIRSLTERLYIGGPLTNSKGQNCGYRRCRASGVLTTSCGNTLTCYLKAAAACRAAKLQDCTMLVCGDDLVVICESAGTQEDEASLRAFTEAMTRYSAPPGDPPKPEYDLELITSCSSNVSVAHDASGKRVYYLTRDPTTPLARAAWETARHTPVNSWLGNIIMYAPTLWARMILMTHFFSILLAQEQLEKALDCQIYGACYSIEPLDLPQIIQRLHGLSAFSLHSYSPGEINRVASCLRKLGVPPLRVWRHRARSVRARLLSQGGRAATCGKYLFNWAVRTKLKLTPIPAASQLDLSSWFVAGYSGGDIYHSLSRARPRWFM", "assay": "Modified HCV NS5B RdRp enzyme assay (preincubation protocol)", "format": "biochemical", "conditions": "HCV NS5B RdRp genotype 1b", "description": "HCV NS5B RdRp cloning, expression, and purification. The cDNA encoding the NS5B protein of HCV, genotype 1b, was cloned into the pET21a expression vector. The protein was expressed with an 18 amino acid C-terminal truncation to enhance the solubility. The E. coli competent cell line BL21(DE3) was used for expression of the protein. Cultures were grown at 37 °C for ∼ 4 hours until the cultures reached an optical density of 2.0 at 600 nm. The cultures were cooled to 20 °C and induced with 1 mM IPTG. Fresh ampicillin was added to a final concentration of 50 µg/ml and the cells were grown overnight at 20 °C.\nCell pellets (3L) were lysed for purification to yield 15-24 mgs of purified NS5B. The lysis buffer consisted of 20 mM Tris-HCl, pH 7.4, 500 mM NaCl, 0.5% triton X-100, 1 mM DTT, 1mM EDTA, 20% glycerol, 0.5 mg/ml lysozyme, 10 mM MgCl2, 15 ug/ml deoxyribonuclease I, and Complete TM protease inhibitor tablets (Roche). After addition of the lysis buffer, frozen cell pellets were resuspended using a tissue homogenizer. To reduce the viscosity of the sample, aliquots of the lysate were sonicated on ice using a microtip attached to a Branson sonicator. The sonicated lysate was centrifuged at 100,000 x g for 1hr at 4 °C and filtered through a 0.2 µm filter unit (Corning).\nThe protein was purified using three sequential chromatography steps: Heparin sepharose CL-6B, polyU sepharose 4B, and Hitrap SP sepharose (Pharmacia). The chromatography buffers were identical to the lysis buffer but contained no lysozyme, deoxyribonuclease I, MgCl2 or protease inhibitor and the NaCl concentration of the buffer was adjusted according to the requirements for charging the protein onto the column. Each column was eluted with a NaCl gradient which varied in length from 5-50 column volumes depending on the column type. After the final chromatography step, the resulting purity of the enzyme is >90% based on SDS-PAGE analysis. The enzyme was aliquoted and stored at -80 °C.\nStandard HCV NS5B RdRp enzyme assay. HCV RdRp genotype 1b assays were run in a final volume of 60 µl in 96 well plates (Costar 3912). The assay buffer is composed of 20 mM Hepes, pH 7.5, 2.5 mM KCl, 2.5 mM MgCl2, 1 mM DTT, 1.6 U RNAse inhibitor (Promega N2515), 0.1 mg/ml BSA (Promega R3961), and 2 % glycerol. All compounds were serially diluted (3-fold) in DMSO and diluted further in water such that the final concentration of DMSO in the assay was 2%. HCV RdRp genotype 1b enzyme was used at a final concentration of 28 nM. A polyA template was used at 6 nM, and a biotinylated oligo-dT12 primer was used at 180 nM final concentration. Template was obtained commercially (Amersham 27-4110). Biotinylated primer was prepared by Sigma Genosys. 3H-UTP was used at 0.6 µCi (0.29 µM total UTP). Reactions were initiated by the addition of enzyme, incubated at 30 °C for 60 min, and stopped by adding 25 µl of 50 mM EDTA containing SPA beads (4 µg/µl, Amersham RPNQ 0007). Plates were read on a Packard Top Count NXT after >1hr incubation at room temperature.\nModified HCV NS5B RdRp enzyme assay. A modified enzyme assay was performed essentially as described for the standard enzyme assay except for the following: The biotinylated oligo dT12 primer was precaptured on streptavidin-coated SPA beads by mixing primer and beads in assay buffer and incubating at room temperature for one hour. Unbound primer was removed after centrifugation. The primer-bound beads were resuspended in 20 mM Hepes buffer, pH 7.5 and used in the assay at final concentrations of 20 nM primer and 0.67 µg/µl beads. Order of addition in the assay: enzyme (14 nM) was added to diluted compound followed by the addition of a mixture of template (0.2 nM) , 3H-UTP (0.6 µCi, 0.29 µM), and primer-bound beads, to initiate the reaction; concentrations given are final. Reactions were allowed to proceed for 4 hours at 30° C.\nIC50 values for compounds were determined using seven different [I]. […]"}, "HCV replicon": {"tested_on": "HCV replicon", "assay": "HCV FRET screening assay in HCV replicon cells", "format": "cell-based", "conditions": "Hepatitis C virus, HCV replicon cells, FRET assay; read-out: EC50", "source_text": "FRET Assay Preparation. To perform the HCV FRET screening assay, 96-well cell culture plates were used. The FRET peptide (Anaspec, Inc.) (Taliani et al., Anal. Biochem. 1996, 240, 60-67) contains a fluorescence donor, EDANS, near one end of the peptide and an acceptor, DABCYL, near the other end. The fluorescence of the peptide is quenched by […] resonance energy transfer (RET) between the donor and the acceptor, but as the NS3 protease cleaves the peptide the products are released from RET quenching and the fluorescence of the donor becomes apparent. The assay reagent was made as follows: 5X cell Luciferase cell culture lysis reagent from Promega (#E153A) diluted to 1X with dH2O, NaCl added to 150 mM final, the FRET peptide diluted to 20 uM final from a 2 mM stock.\nTo prepare plates, HCV replicon cells, with or without a Renilla luciferase reporter gene, were trypsinized and placed into each well of a 96-well plate with titrated test compounds added in columns 3 through 12; columns 1 and 2 contained a control compound (HCV protease inhibitor), and the bottom row contained cells without compound. The plates were then placed in a CO2 incubator at 37 °C.\nAssays. Subsequent to addition of the test compounds described above (FRET Assay Preparation), at various times the plate was removed and Alamar blue solution (Trek Diagnostics, #00-100) was added per well as a measure of cellular toxicity. After reading in a Cytoflour 4000 instrument (PE Biosystems), plates were rinsed with PBS and then used for FRET assay by the addition of 30 ul of the FRET peptide assay reagent described above (FRET Assay Preparation) per well. The plate was then placed into the Cytoflour 4000 instrument which had been set to 340 excite/490 emission, automatic mode for 20 cycles and the plate read in a kinetic mode. Typically, the signal to noise using an endpoint analysis after the reads was at least three-fold. Alternatively, after Alamar blue reading, plates were rinsed with PBS, 50 ul of DMEM (high glucose) without phenol red was added and plates were then used for luciferase assay using the Promega Dual-Glo Luciferase Assay System.\nCompound analysis was determined by quantification of the relative HCV replicon inhibition and the relative cytotoxicity values. To calculate cytoxicity values, the average Alamar Blue fluorescence signals from the control wells were set as 100% non-toxic. The individual signals in each of the compound test wells were then divided by the average control signal and multiplied by 100% to determine […]. To calculate the HCV replicon inhibition values, an average background value was obtained from the two wells containing the highest amount of HCV protease inhibitor at the end of the assay period. These numbers were similar to those obtained from naïve Huh-7 cells.\nThe background numbers were then subtracted from the average signal obtained from the control wells and this number was used as 100% activity. The individual signals in each of the compound test wells were then divided by the averaged control values after background subtraction and multiplied by 100% to determine percent activity. EC50 values for a protease inhibitor titration were calculated as the concentration which caused a 50% reduction in FRET or luciferase activity. The two numbers generated for the compound plate, percent cytoxicity and percent activity were used to determine compounds of interest for further analysis."}},
  "data": [
    {"smiles": "CCN(CC)CCN1CCCN(C(=O)C23CC2c2cc(OC)ccc2-c2c(C4CCCCC4)c4ccc(C(=O)NS(=O)(=O)N(C)C)cc4n2C3)CC1", "note": "(stereo not drawn)", "values": [
      {"measurement": "IC50", "setting": "HCV NS5B", "result": "97 to 1000", "unit": "nM"},
      {"measurement": "EC50", "setting": "HCV replicon", "result": "97 to 1000", "unit": "nM"}
    ]},
    {"smiles": "COc1ccc2c(c1)C1CC1(C(=O)N1CCC(C)(O)CC1)Cn1c-2c(C2CCCCC2)c2ccc(C(=O)NS(C)(=O)=O)cc21", "note": "(stereo not drawn)", "values": [
      {"measurement": "IC50", "setting": "HCV NS5B", "result": "97 to 1000", "unit": "nM"},
      {"measurement": "EC50", "setting": "HCV replicon", "result": "97 to 1000", "unit": "nM"}
    ]},
    {"smiles": "CCC(CC)N1CCN(C(=O)C23CC2c2cc(OC)ccc2-c2c(C4CCCCC4)c4ccc(C(=O)NS(=O)(=O)N(C)C)cc4n2C3)CC1", "note": "(stereo not drawn) [drawing 39]", "values": [
      {"measurement": "IC50", "setting": "HCV NS5B", "result": "97 to 1000", "unit": "nM"}
    ]},
    {"smiles": "COc1cccc2c1C1CC1(C(=O)N1C[C@@H](C)N[C@@H](C)C1)Cn1c-2c(C2CCCCC2)c2ccc(C(=O)NS(=O)(=O)N(C)C)cc21", "note": "(stereo partly drawn)", "values": [
      {"measurement": "IC50", "setting": "HCV NS5B", "result": "97 to 1000", "unit": "nM"},
      {"measurement": "EC50", "setting": "HCV replicon", "result": "97 to 1000", "unit": "nM"}
    ]},
    {"smiles": "COc1ccc2c(c1)C1CC1(C(=O)N1CCC(F)(F)CC1)Cn1c-2c(C2CCCCC2)c2ccc(C(=O)NS(=O)(=O)N(C)C)cc21", "note": "(stereo not drawn)", "values": [
      {"measurement": "IC50", "setting": "HCV NS5B", "result": "97 to 1000", "unit": "nM"},
      {"measurement": "EC50", "setting": "HCV replicon", "result": "97 to 1000", "unit": "nM"}
    ]},
    {"smiles": "COc1ccc2c(c1)C1CC1(C(=O)N1CCOC[C@H]1CO)Cn1c-2c(C2CCCCC2)c2ccc(C(=O)NS(=O)(=O)N(C)C)cc21", "note": "(stereo partly drawn)", "values": [
      {"measurement": "IC50", "setting": "HCV NS5B", "result": "97 to 1000", "unit": "nM"},
      {"measurement": "EC50", "setting": "HCV replicon", "result": "97 to 1000", "unit": "nM"}
    ]},
    {"smiles": "COc1ccc2c(c1)C1CC1(C(=O)N(C)CCN(C)C)Cn1c-2c(C2CCCCC2)c2ccc(C(=O)NS(=O)(=O)N(C)C)cc21", "note": "(stereo not drawn)", "values": [
      {"measurement": "IC50", "setting": "HCV NS5B", "result": "97 to 1000", "unit": "nM"},
      {"measurement": "EC50", "setting": "HCV replicon", "result": "97 to 1000", "unit": "nM"}
    ]},
    {"smiles": "COc1ccc2c(c1)C1CC1(C(=O)N1CCCN(C)CC1)Cn1c-2c(C2CCCCC2)c2ccc(C(=O)NS(=O)(=O)N(C)C)cc21", "note": "(stereo not drawn) [drawing 58]", "values": [
      {"measurement": "IC50", "setting": "HCV NS5B", "result": "97 to 1000", "unit": "nM"},
      {"measurement": "EC50", "setting": "HCV replicon", "result": "97 to 1000", "unit": "nM"}
    ]},
    {"smiles": "COc1ccc2c(c1)C1CC1(C(=O)N1CCCN(C)CC1)Cn1c-2c(C2CCCCC2)c2ccc(C(=O)NS(=O)(=O)C(C)C)cc21", "note": "(stereo not drawn)", "values": [
      {"measurement": "IC50", "setting": "HCV NS5B", "result": "97 to 1000", "unit": "nM"},
      {"measurement": "EC50", "setting": "HCV replicon", "result": "> 120", "unit": "nM"}
    ]},
    {"smiles": "COc1ccc2c(c1)C1CC1(C(=O)O)Cn1c-2c(C2CCCCC2)c2ccc(C(=O)NS(=O)(=O)C3CC3)cc21", "note": "(stereo not drawn)", "values": [
      {"measurement": "IC50", "setting": "HCV NS5B", "result": "97 to 1000", "unit": "nM"}
    ]},
    {"smiles": "COc1ccc2c(c1)C1CC1(C(=O)O)Cn1c-2c(C2CCCCC2)c2ccc(C(=O)OC(C)(C)C)cc21", "note": "(stereo not drawn)", "values": [
      {"measurement": "IC50", "setting": "HCV NS5B", "result": "1000 to 10000", "unit": "nM"}
    ]},
    {"smiles": "COC(=O)C12CC1c1cc(OC)ccc1-c1c(C3CCCCC3)c3ccc(C(=O)NS(N)(=O)=O)cc3n1C2", "note": "(stereo not drawn)", "values": [
      {"measurement": "IC50", "setting": "HCV NS5B", "result": "97 to 1000", "unit": "nM"}
    ]},
    {"smiles": "COC(=O)C12CC1c1cc(OC)ccc1-c1c(C3CCCCC3)c3ccc(C(=O)NS(=O)(=O)C(C)C)cc3n1C2", "note": "(stereo not drawn)", "values": [
      {"measurement": "IC50", "setting": "HCV NS5B", "result": "97 to 1000", "unit": "nM"}
    ]},
    {"smiles": "COc1ccc2c(c1)C1CC1(C(=O)N1CCC(C)(O)CC1)Cn1c-2c(C2CCCCC2)c2ccc(C(=O)NS(=O)(=O)C3CC3)cc21", "note": "(stereo not drawn)", "values": [
      {"measurement": "IC50", "setting": "HCV NS5B", "result": "97 to 1000", "unit": "nM"}
    ]},
    {"smiles": "COc1ccc2c(c1)C1CC1(C(=O)N1CCCCC1CN(C)C)Cn1c-2c(C2CCCCC2)c2ccc(C(=O)NS(=O)(=O)N(C)C)cc21", "note": "(stereo not drawn) [drawing 50]", "values": [
      {"measurement": "IC50", "setting": "HCV NS5B", "result": "97 to 1000", "unit": "nM"}
    ]},
    {"smiles": "COc1ccc2c(c1)C1CC1(C(=O)O)Cn1c-2c(C2CCCCC2)c2ccc(C(=O)NS(=O)(=O)C(C)C)cc21", "note": "(stereo not drawn)", "values": [
      {"measurement": "IC50", "setting": "HCV NS5B", "result": "97 to 1000", "unit": "nM"}
    ]}
  ]
}
